# Laboratory results taken from ChEMBL document CHEMBL1128401, “Structure-activity relationships in the 8-amino-6,7,8,9-tetrahydro-3H-benz[e]indole ring system. 1. Effects of substituents in the aromatic system on serotonin and dopamine receptor subtypes” (J Med Chem, 1995).
# The source made the active and inactive calls. No cut-off for these calls is given here.
# Experiments:
# [1] = molecular target: T1, 5-hydroxytryptamine receptor 1A (Rattus norvegicus, UniProt P19327); test: Binding affinity against 5-hydroxytryptamine 1A receptor from CHO-K1 cells, using [3H]8-OH-DPAT as the radioligand.; assay type: cell-based
# T1 sequence (P19327 whole entry): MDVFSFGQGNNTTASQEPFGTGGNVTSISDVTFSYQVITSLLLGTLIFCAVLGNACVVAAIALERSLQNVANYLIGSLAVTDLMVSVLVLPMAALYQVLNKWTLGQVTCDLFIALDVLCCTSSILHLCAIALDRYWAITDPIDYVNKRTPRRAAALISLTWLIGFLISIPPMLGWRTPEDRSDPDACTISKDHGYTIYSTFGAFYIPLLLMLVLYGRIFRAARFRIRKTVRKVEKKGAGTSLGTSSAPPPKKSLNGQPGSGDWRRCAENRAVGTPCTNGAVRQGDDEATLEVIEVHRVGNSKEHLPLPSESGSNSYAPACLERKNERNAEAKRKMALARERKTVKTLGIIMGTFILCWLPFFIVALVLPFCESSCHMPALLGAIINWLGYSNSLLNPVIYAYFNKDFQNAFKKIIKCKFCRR
# [2] = molecular target: 5-hydroxytryptamine receptor 1B (Homo sapiens, UniProt P28222); test: Binding affinity against 5-hydroxytryptamine 1D receptor beta expressed in CHO-K1 cells, using [3H]5-HT as the radioligand.; assay type: cell-based
# 5-hydroxytryptamine receptor 1B, sequence (P28222 whole entry): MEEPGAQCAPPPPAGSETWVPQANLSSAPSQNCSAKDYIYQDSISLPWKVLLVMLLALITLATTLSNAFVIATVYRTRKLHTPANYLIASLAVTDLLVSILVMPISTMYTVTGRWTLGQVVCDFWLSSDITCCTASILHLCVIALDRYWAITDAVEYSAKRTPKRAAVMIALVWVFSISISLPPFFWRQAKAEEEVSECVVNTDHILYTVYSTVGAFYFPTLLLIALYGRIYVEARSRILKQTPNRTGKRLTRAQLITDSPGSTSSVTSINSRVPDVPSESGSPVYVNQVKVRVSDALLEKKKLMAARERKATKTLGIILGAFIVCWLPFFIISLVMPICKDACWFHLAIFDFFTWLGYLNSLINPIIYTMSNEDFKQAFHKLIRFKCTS
# [3] = molecular target: 5-hydroxytryptamine receptor 1D (Homo sapiens, UniProt P28221); test: Binding affinity against 5-hydroxytryptamine 1D receptor alpha expressed in CHO-K1 cells, using [3H]-5-HT as the radioligand.; assay type: cell-based
# 5-hydroxytryptamine receptor 1D, sequence (P28221 whole entry): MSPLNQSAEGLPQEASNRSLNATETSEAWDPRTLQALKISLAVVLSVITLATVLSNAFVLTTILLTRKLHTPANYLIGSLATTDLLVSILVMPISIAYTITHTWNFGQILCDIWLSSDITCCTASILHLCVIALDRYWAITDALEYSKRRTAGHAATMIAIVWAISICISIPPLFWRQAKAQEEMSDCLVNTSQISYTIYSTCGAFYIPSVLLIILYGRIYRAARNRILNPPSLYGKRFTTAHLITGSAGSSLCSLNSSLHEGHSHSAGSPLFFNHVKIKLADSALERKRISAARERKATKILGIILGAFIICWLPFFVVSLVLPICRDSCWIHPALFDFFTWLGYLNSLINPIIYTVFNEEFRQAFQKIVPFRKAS
# D(3) dopamine receptor [4] = molecular target: T2, D(3) dopamine receptor (Rattus norvegicus, UniProt P19020); test: Compound was tested for binding affinity against Dopamine receptor D3 expressed in CHO-K1 cells, using [3H]spiperone as the radioligand; I= inactive at the highest dose tested (12.5).; assay type: cell-based
# T2 sequence (P19020 whole entry): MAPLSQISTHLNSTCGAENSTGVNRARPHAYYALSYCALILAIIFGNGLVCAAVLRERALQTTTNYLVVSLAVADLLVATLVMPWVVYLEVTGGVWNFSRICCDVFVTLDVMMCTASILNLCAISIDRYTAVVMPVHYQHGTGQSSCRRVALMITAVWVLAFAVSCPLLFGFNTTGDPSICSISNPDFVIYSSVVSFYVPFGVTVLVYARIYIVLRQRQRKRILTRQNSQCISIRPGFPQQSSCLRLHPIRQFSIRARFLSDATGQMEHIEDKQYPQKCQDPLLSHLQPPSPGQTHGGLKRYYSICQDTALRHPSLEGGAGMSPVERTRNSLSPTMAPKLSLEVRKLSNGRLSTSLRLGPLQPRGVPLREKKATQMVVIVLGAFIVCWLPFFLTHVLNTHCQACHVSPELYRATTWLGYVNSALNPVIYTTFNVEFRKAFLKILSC
# Rattus norvegicus [5] = test: Compound was tested in vivo for DOPA accumulation in corpus striatum against reserpine-pretreated rats; I=inactive at the highest dose tested (12.5).; assay type: functional, organism-based
# Rattus norvegicus [6] = species: Rattus norvegicus; test: Compound was tested for binding affinity against D2 receptor expressed in CHO-K1 cells, using [3H]U-86170 as the radioligand; I=inactive (less than 50% inhibition at 1 uM).
# Rattus norvegicus [7] = species: Rattus norvegicus; test: Compound was tested for binding affinity against D3 receptor expressed in CHO-K1 cells, using [3H]spiperone as the radioligand;I= inactive (less than 50% inhibition at 1 uM).
# Rattus norvegicus [8] = test: Compound was tested in vivo for 5-HTP accumulation in limbic system against reserpine-pretreated rats;I= inactive at the highest dose tested (12.5).; assay type: functional, organism-based
# Rattus norvegicus [9] = test: The Compound was tested in vivo for DOPA accumulation in limbic system against reserpine-pretreated rats; inactive at the highest dose tested (12.5).; assay type: functional, organism-based
# Rattus norvegicus [10] = test: The Compound was tested in vivo for DOPA accumulation in limbic system against reserpine-pretreated rats;I= inactive at the highest dose tested (12.5).; assay type: functional, organism-based
# D(2) dopamine receptor [11] = molecular target: T3, D(2) dopamine receptor (Rattus norvegicus, UniProt P61169); details: cho-k1
# T3 sequence (P61169 whole entry): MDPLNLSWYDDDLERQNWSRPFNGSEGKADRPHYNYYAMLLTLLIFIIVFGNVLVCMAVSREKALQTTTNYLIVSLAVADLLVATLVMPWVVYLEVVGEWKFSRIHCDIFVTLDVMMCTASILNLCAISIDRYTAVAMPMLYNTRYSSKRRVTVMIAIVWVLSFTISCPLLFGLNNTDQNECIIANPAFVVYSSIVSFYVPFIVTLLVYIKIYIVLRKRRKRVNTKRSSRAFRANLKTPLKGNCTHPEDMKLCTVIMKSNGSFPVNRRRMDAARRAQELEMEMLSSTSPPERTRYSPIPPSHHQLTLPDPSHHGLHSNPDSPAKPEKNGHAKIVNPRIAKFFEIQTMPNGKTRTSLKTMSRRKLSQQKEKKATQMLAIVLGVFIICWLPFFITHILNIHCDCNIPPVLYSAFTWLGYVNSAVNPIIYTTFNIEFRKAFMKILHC
# D(2) dopamine receptor [12] = molecular target: T3, D(2) dopamine receptor; test: Binding affinity against Dopamine receptor D2 from CHO-K1 cells, using [3H]U-86,170 as the radioligand.; assay type: cell-based
# D(3) dopamine receptor [13] = molecular target: T2, D(3) dopamine receptor; test: Binding affinity against Dopamine receptor D3 from CHO-K1 cells, using [3H]spiperone as the radioligand.; assay type: cell-based; details: read-out: Ki
# Rattus norvegicus [14] = test: The compound was tested in vivo for DOPA accumulation in hemispheres (cortex) against reserpine-pretreated rats;I= inactive at the highest dose tested; assay type: functional, organism-based
# Rattus norvegicus [15] = test: The compound was tested in vivo for DOPA accumulation in limbic system against reserpine-pretreated rats; I=inactive at the highest dose tested; assay type: functional, organism-based
# Rattus norvegicus [16] = test: compound was tested in vivo for 5-HTP accumulation in corpus striatum against reserpine-pretreated rats, activity expressed as ED50;I= inactive at the highest dose tested; assay type: functional, organism-based
# D(2) dopamine receptor [17] = molecular target: T3, D(2) dopamine receptor; test: Binding affinity against Dopamine receptor D2 expressed in CHO-K1 cells, using [3H]U-86170 as the radioligand.; assay type: cell-based
# D(3) dopamine receptor [18] = molecular target: T2, D(3) dopamine receptor; test: The compound was tested in vitro for binding affinity against cloned mammalian Dopamine receptor D3 expressed in CHO cells by, using [3H]spiperone as radioligand; assay type: cell-based
# Rattus norvegicus [19] = test: The compound was tested in vivo for DOPA accumulation in hemispheres (cortex) against reserpine-pretreated rats; I= inactive at the highest dose tested (20).; assay type: functional, organism-based
# Rattus norvegicus [20] = test: The compound was tested in vivo for DOPA accumulation in limbic system against reserpine-pretreated rats; P=significant partial reduction only at the highest dose tested (20).; assay type: functional, organism-based
# Rattus norvegicus [21] = test: compound was tested in vivo for 5-HTP accumulation in corpus striatum against reserpine-pretreated rats, activity expressed as ED50; P=significant partial reduction only at the highest dose tested (20).; assay type: functional, organism-based
# Rattus norvegicus [22] = test: compound was tested in vivo for 5-HTP accumulation in hemispheres (cortex) against reserpine-pretreated rats; P=significant partial reduction only at the highest dose tested (20).; assay type: functional, organism-based
# Rattus norvegicus [23] = test: compound was tested in vivo for 5-HTP accumulation in limbic system against reserpine-pretreated rats; P=significant partial reduction only at the highest dose tested (20).; assay type: functional, organism-based
# Rattus norvegicus [24] = test: compound was tested in vivo for DOPA accumulation in corpus striatum against reserpine-pretreated rats; P=significant partial reduction only at the highest dose tested (20).; assay type: functional, organism-based
# Rattus norvegicus [25] = test: Compound was tested in vivo for DOPA accumulation in corpus striatum against reserpine-pretreated rats;P= significant partial reduction only at the highest dose tested (50).; assay type: functional, organism-based
# Rattus norvegicus [26] = test: Compound was tested in vivo for 5-HTP accumulation in hemispheres (cortex) against reserpine-pretreated rats;I= inactive at the highest dose tested (50).; assay type: functional, organism-based
# Rattus norvegicus [27] = test: Compound was tested in vivo for 5-HTP accumulation in limbic system against reserpine-pretreated rats;P= significant partial reduction only at the highest dose tested (50).; assay type: functional, organism-based
# Rattus norvegicus [28] = test: The Compound was tested in vivo for DOPA accumulation in hemispheres (cortex) against reserpine-pretreated rats;I= inactive at the highest dose tested (50).; assay type: functional, organism-based
# Rattus norvegicus [29] = test: The Compound was tested in vivo for DOPA accumulation in limbic system against reserpine-pretreated rats; P=significant partial reduction only at the highest dose tested (50).; assay type: functional, organism-based
# Rattus norvegicus [30] = test: Compound was tested in vivo for 5-HTP accumulation in corpus striatum against reserpine-pretreated rats;I= inactive at the highest dose tested (50).; assay type: functional, organism-based
# Rattus norvegicus [31] = test: compound was tested in vivo for DOPA accumulation in corpus striatum against reserpine-pretreated rats; assay type: functional
# D(3) dopamine receptor [32] = molecular target: T2, D(3) dopamine receptor; test: Binding affinity against Dopamine receptor D3 expressed in CHO-K1 cells, using [3H]spiperone as the radioligand.; assay type: cell-based
# Rattus norvegicus [33] = test: In vivo for DOPA accumulation in corpus striatum against reserpine-pretreated rats.; assay type: functional
# Rattus norvegicus [34] = test: In vivo for 5-HTP accumulation in corpus striatum against reserpine-pretreated rats.; assay type: functional
# Rattus norvegicus [35] = test: Compound was tested in vivo for 5-HTP accumulation in hemispheres (cortex) against reserpine-pretreated rats; P=significant partial reduction only at the highest dose tested (12.5).; assay type: functional, organism-based
# Rattus norvegicus [36] = test: In vivo for 5-HTP accumulation in limbic system against reserpine-pretreated rats.; assay type: functional
# Rattus norvegicus [37] = test: The Compound was tested in vivo for DOPA accumulation in hemispheres (cortex) against reserpine-pretreated rats;I= inactive at the highest dose tested (25); assay type: functional, organism-based
# Rattus norvegicus [38] = test: In vivo for DOPA accumulation in limbic system against reserpine-pretreated rats.; assay type: functional
# Rattus norvegicus [39] = test: Bioavailability in male Sprague-Dawley rats, after the iv administration at a dose of 4.0(pmol/g/h); assay type: ADME, organism-based; details: in vivo
# Rattus norvegicus [40] = test: Bioavailability in male Sprague-Dawley rats, after the po administration at a dose of 10.0(pmol/g/h); assay type: ADME, organism-based; details: in vivo
# [41] = Bioavailability in rat plasma following iv/po dose; assay type: ADME, organism-based
# [42] = tmax in hours at a iv dose of 4.0(pmol/g/h).; assay type: ADME, organism-based; details: in vivo
# [43] = tmax in hours at a po dose of 10.0(pmol/g/h).; assay type: ADME, organism-based; details: in vivo, 10 pmol/g/h
# Rattus norvegicus [44] = test: The Compound was tested in vivo for DOPA accumulation in hemispheres (cortex) against reserpine-pretreated rats; I= inactive at the highest dose tested (12.5).; assay type: functional, organism-based
# [45] = Ratio of the 5-HTP accumulation decrease in limbic regions after oral and subcutaneous administration in rat.; assay type: functional, Limbic system
compound,measurement,setting,value
CCCN(CCC)C1CCc2ccc3[nH]cc(CN(C)C)c3c2C1 (centres undefined),Ki,[1],113 nM
same,Ki,[2]; cho-k1,Not Active
same,Ki,[3]; cho-k1,Not Active
same,Ki,D(3) dopamine receptor [4],Not Active
same,ED50,Rattus norvegicus [5],inactive
same,Ki,Rattus norvegicus [6],inactive
same,Ki,Rattus norvegicus [7],inactive
same,ED50,Rattus norvegicus [8],inactive
same,ED50,Rattus norvegicus [9],inactive
same,ED50,Rattus norvegicus [10],inactive
same,Ki,D(2) dopamine receptor [11],Not Active
CCCN(CCC)C1CCc2ccc3c(c(C=O)cn3C)c2C1 (centres undefined),Ki,[1],40 nM
same,Ki,[2]; read-out: Ki,439 nM
same,Ki,[3]; read-out: Ki,334 nM
same,Ki,D(2) dopamine receptor [12],510 nM
same,Ki,D(3) dopamine receptor [13],1010 nM
same,ED50,Rattus norvegicus [14],inactive
same,ED50,Rattus norvegicus [15],inactive
same,ED50,Rattus norvegicus [16],inactive
CCCN(CCC)C1CCc2cc(F)c3c(c(C=O)cn3C)c2C1 (centres undefined),Ki,[1],28 nM
same,Ki,[2]; read-out: Ki,618 nM
same,Ki,[3]; read-out: Ki,419 nM
same,Ki,D(2) dopamine receptor [17],1030 nM
same,Ki,D(3) dopamine receptor [18],572 nM
same,ED50,Rattus norvegicus [19],inactive
same,ED50,Rattus norvegicus [20],Weak activity
same,ED50,Rattus norvegicus [21],Weak activity
same,ED50,Rattus norvegicus [22],Weak activity
same,ED50,Rattus norvegicus [23],Weak activity
same,ED50,Rattus norvegicus [24],Weak activity
CCCN(CCC)C1CCc2ccc3cc[nH]c3c2C1 (centres undefined),ED50,Rattus norvegicus [25],Weak activity
same,ED50,Rattus norvegicus [26],inactive
same,ED50,Rattus norvegicus [27],Weak activity
same,ED50,Rattus norvegicus [28],inactive
same,ED50,Rattus norvegicus [29],Weak activity
same,ED50,Rattus norvegicus [30],inactive
CCCN(CCC)C1CCc2ccc3[nH]cc(C=O)c3c2C1 (centres undefined),Ki,[2]; read-out: Ki,364 nM
same,Ki,[3]; read-out: Ki,173 nM
same,Ki,D(3) dopamine receptor [13],70 nM
same,ED50,Rattus norvegicus [14],inactive
same,ED50,Rattus norvegicus [31],3.34 µmol/kg
CCCN(CCC)C1CCc2ccc3[nH]cc(SC)c3c2C1 (centres undefined),Ki,[1],13 nM
same,Ki,[2]; cho-k1,Not Active
same,Ki,[3]; read-out: Ki,18 nM
same,Ki,D(2) dopamine receptor [17],33 nM
same,Ki,D(3) dopamine receptor [32],55 nM
same,ED50,Rattus norvegicus [33],5.23 µmol/kg
same,ED50,Rattus norvegicus [34],10.2 µmol/kg
same,ED50,Rattus norvegicus [35],Weak activity
same,ED50,Rattus norvegicus [36],10 µmol/kg
same,ED50,Rattus norvegicus [37],inactive
same,ED50,Rattus norvegicus [38],7.11 µmol/kg
"CCCN(CCC)[C@@H]1CCc2ccc3[nH]c(C#N)cc3c2C1 [U-92,016-A]",AUC,Rattus norvegicus [39],1817 pM ml-1
same,AUC,Rattus norvegicus [40],2857 pM ml-1
same,bioavailability,[41],63%
same,Tmax,[42],4 h
same,Tmax,[43],75 h
same,ED50,Rattus norvegicus [44],inactive
same,ED50 ratio,[45],38
